Several values for one entry are separate records, joined by “and”; a condition that tells them apart may be missing. Identical values can stand only once. Entries after “also recorded” stand apart in the source; their conditions may differ.
What was measured:
[1] = tested on: male Sprague-Dawley rats; experiment: Clinical chemistry analysis of plasma after dosing galactosamine HCl; assay type: in vivo, rat; conditions: plasma 24 hours post-dosing
Protocol: At the time of dosing (at the start of day 1) the growing rats were each approximately 260 g in mass. Galactosamine (abbreviated GaIN) HCl (from Sigma, France) was dissolved in physiological saline and dosed by intraperitoneal injection at either 200 mg/kg or at 800 mg/kg; ten animals (nos. 101-110) received the low dose and ten animals (nos. 201-210) received the high dose. Ten control animals (nos. 1-10) received an oral dose of corn oil. Five of each group of ten rats were euthanased by means of CO2 on day 2 with the remainder being euthanased by the same technique on day 8. The early-euthanased rats were numbers 6-10, 106-110 and 206-210. The late-euthanased rats were numbers 1-5, 101-105 and 201-205. Blood was sampled from the orbital sinus, under isoflurane anaesthesia. Blood was sampled from all animals on day −3 and just prior to euthanasia on either day 2 or day 8. Following euthanasia each rat was sampled for histopathological examination with the sampling including taking ten liver samples from each rat (two from each liver lobe). The blood samples were collected into vials containing lithium heparin as anticoagulant and immediately centrifuged at approx. minus four degrees C. to separate plasma. A portion of each plasma sample was analysed at thirty degrees C. on an AU600 multiparametric clinical analyser (Olympus) for a range of clinical chemistry parameters including alanine aminotransferase (ALT) and aspartate aminotransferase (AST) amongst many others.

[2] = tested on: male Sprague-Dawley rats; experiment: 1H NMR of post-dose urine after dosing galactosamine HCl (galactosamine excretion, endogenous metabolite changes, responder classification); assay type: in vivo, rat
Protocol: At the time of dosing (at the start of day 1) the growing rats were each approximately 260 g in mass. Galactosamine (abbreviated GaIN) HCl (from Sigma, France) was dissolved in physiological saline and dosed by intraperitoneal injection at either 200 mg/kg or at 800 mg/kg; ten animals (nos. 101-110) received the low dose and ten animals (nos. 201-210) received the high dose. Ten control animals (nos. 1-10) received an oral dose of corn oil.
Pre- and post-dose urine samples were collected for 7 hours daily into ice-cooled vessels containing sodium azide (0.100 ml of a 10% (w/v) solution of sodium azide in water) as an antibacterial preservative. There was an additional overnight urine collection on the day of dosing (from 7-24 hours post-dose). The urine collection apparatus was cleaned prior to each collection to minimise bacterial, food and faecal contamination. The urine samples were deep-frozen pending NMR analysis.
Urine samples were prepared for NMR analysis by mixing 400 Eli of urine with 200 μl of phosphate buffer (an 81:19 (v/v) mixture of 0.2 M Na2HPO4 and 0.2 M NaH2PO4; pH 7.4); if insufficient urine was available the shortfall was made up with purified water with a minimum of 200 μl of urine being used. The urine-buffer mixture was left to stand for 10 minutes at room temperature to enable buffering to take place and then centrifuged at 13,000 rpm for a further 10 minutes to remove suspended particulates. 500 μl of ‘clear’ buffered urine was transferred to an NMR tube and 50 μl of a TSP/D2O solution added. TSP (sodium 3-trimethylsilyl-[2,2,3,3-^2H4]-1-propionate) is a chemical shift reference compound (δ 0) used in the NMR experiment and the D2O provided a field/frequency lock for the NMR spectrometer. The concentration of the TSP/D2O solution was such as to give a final TSP concentration of 0.1 mM in the NMR tube. The NMR analyses were carried out at thirty degrees C. on a Bruker AMX 600 MHz NMR spectrometer with the NOESYPRESAT pulse sequence (Claridge, 1999) used to reduce the size of the water signal. The principal acquisition parameters were:
After acquisition, the NMR spectra were Fourier-transformed into 32768 data points following application of 0.3 Hz line-broadening by means of an exponential multiplication applied to the free induction decay signal. The spectra were phased to give an even baseline around the NMR signals and the chemical shift scale was set by assigning the value of δ 0 to the TSP peak. Prior to data-reduction, the baseline of each day −1 spectrum was moved to zero intensity using a straight-line baseline correction algorithm. All these spectral processing operations were carried out on a Silicon Graphics computer using the ‘xwinnmr’ software (Bruker GmBH).
On the basis of this visual examination, animals could be readily categorised as either (i) ‘responders’ or (ii) as ‘weak or non-responders’.

[3] = 200 mg/kg i.p., individual animals 106-110, hydrochloride
[4] = 800 mg/kg i.p., individual animals 206-210, hydrochloride
[5] = 200 mg/kg i.p., animals 101-105
[6] = 800 mg/kg i.p., animals 201-205, hydrochloride
[7] = 800 mg/kg i.p., day 2 and day 3, animals 201 and 202
[8] = 800 mg/kg i.p., day 3, animals 201 and 202
[9] = 800 mg/kg i.p., day 3, animals 201 and 202, hydrochloride

Cl.N[C@H]1C(O)O[C@H](CO)[C@H](O)[C@@H]1O (stereo partly shown) [galactosamine HCl, galactosamine hydrochloride]
GGT (γ-glutamyl transferase) ([1]; 200 mg/kg i.p., individual animals 106-110): 0 IU/L
5′-NT (5-nucleotidase) [1, 3]: 23 IU/L and 21 IU/L (2×) and 19 IU/L and 27 IU/L
A/G (albumin/globulin ratio) [1, 3]: 1.3 and 1.4 (3×) and 1.5
ALAT (alanine aminotransferase) [1, 3]: 43 IU/L and 46 IU/L and 49 IU/L and 38 IU/L and 47 IU/L
ALB (albumin) [1, 3]: 33 g/L (3×) and 37 g/L and 34 g/L
AP (alkaline phosphatase) [1, 3]: 606 IU/L and 495 IU/L and 566 IU/L and 697 IU/L and 637 IU/L
ASAT (aspartate aminotransferase) [1, 3]: 107 IU/L and 84 IU/L and 73 IU/L and 67 IU/L and 75 IU/L
BILI (bilirubin) [1, 3]: 0.09 mg/dL and 0.05 mg/dL and 0.11 mg/dL and 0.1 mg/dL and 0.12 mg/dL
CHOL (total cholesterol) [1, 3]: 73 mg/dL and 60 mg/dL and 91 mg/dL and 72 mg/dL and 81 mg/dL
CREA (creatinine) [1, 3]: 0.5 mg/dL (4×) and 0.4 mg/dL
GLUC (glucose) [1, 3]: 173 mg/dL and 184 mg/dL and 167 mg/dL and 138 mg/dL and 182 mg/dL
PROT (total protein) [1, 3]: 59 g/L and 56 g/L and 61 g/L and 58 g/L and 57 g/L
TBA (total bile acids) [1, 3]: 48.0 μmol/L and 22.0 μmol/L and 29.0 μmol/L (2×) and 23.0 μmol/L
TRIG (triglycerides) [1, 3]: 94 mg/dL and 158 mg/dL and 140 mg/dL and 109 mg/dL and 127 mg/dL
UREA (urea) [1, 3]: 29 mg/dL and 40 mg/dL and 33 mg/dL and 28 mg/dL (2×)
5′-NT (5-nucleotidase) [1, 4]: 156 IU/L and 23 IU/L and 17 IU/L and 203 IU/L and 35 IU/L
A/G (albumin/globulin ratio) [1, 4]: 1.7 and 2.1 and 1.5 and 2.4 and 1.8
ALAT (alanine aminotransferase) [1, 4]: 2350 IU/L and 178 IU/L and 45 IU/L and 4300 IU/L and 479 IU/L
ALB (albumin) [1, 4]: 32 g/L and 33 g/L (2×) and 34 g/L and 31 g/L
AP (alkaline phosphatase) [1, 4]: 787 IU/L and 983 IU/L and 666 IU/L and 999 IU/L and 852 IU/L
ASAT (aspartate aminotransferase) [1, 4]: 4320 IU/L and 264 IU/L and 79 IU/L and 10600 IU/L and 832 IU/L
BILI (bilirubin) [1, 4]: 1.26 mg/dL and 0.06 mg/dL and 0.11 mg/dL and 1.37 mg/dL and 0.12 mg/dL
CHOL (total cholesterol) [1, 4]: 60 mg/dL and 15 mg/dL and 61 mg/dL and 42 mg/dL and 46 mg/dL
CREA (creatinine) [1, 4]: 0.4 mg/dL (4×) and 0.5 mg/dL
GGT (γ-glutamyl transferase) [1, 4]: 2 IU/L and 0 IU/L (2×) and 5 IU/L and 1 IU/L
GLUC (glucose) [1, 4]: 100 mg/dL and 162 mg/dL and 168 mg/dL and 80 mg/dL and 130 mg/dL
PROT (total protein) [1, 4]: 51 g/L and 49 g/L and 56 g/L and 47 g/L and 48 g/L
TBA (total bile acids) [1, 4]: 493 µmol/L and 43.0 µmol/L and 20.0 µmol/L and 1300 µmol/L and 65.0 µmol/L
TRIG (triglycerides) [1, 4]: 38 mg/dL (2×) and 89 mg/dL and 148 mg/dL and 95 mg/dL
UREA (urea) [1, 4]: 45 mg/dL and 24 mg/dL and 29 mg/dL and 40 mg/dL and 25 mg/dL
urinary creatine [2, 5]: Creatine: no increase
urinary taurine [2, 5]: instances of raised
urinary 2-oxoglutarate [2, 6]: 2-Oxoglutarate: Animals 203-205 showed no obvious change and reduced levels on days 2 and 3 but very high levels on day 7.
urinary taurine [2, 6]: increases; also recorded: Taurine: Animals 203-205 showed no clear change whilst; also recorded: animals 201 & 202 showed highly elevated levels
urinary guanidinoacetic acid (GAA) ([2]; 800 mg/kg i.p., animals 201 and 202, hydrochloride): increases; also recorded: very much increased levels on day 3 and perhaps somewhat
urinary betaine ([2]; 800 mg/kg i.p., day 2 and day 3, animals 201 & 202, hydrochloride): increases; also recorded: Betaine: appeared very clearly in the day 2 and day 3 samples
urinary glucose [2, 7]: Glucose: appeared to be elevated in the day 2 and day 3
urinary urocanic acid [2, 7]: Urocanic acid: appeared clearly in the day 2 and day 3
urinary glutamate and glutamine ([2]; 800 mg/kg i.p., day 3, animal 201): Glutamate and glutamine were elevated in the day 3 urine
urinary histidine ([2]; 800 mg/kg i.p., day 3, animal 201, hydrochloride): increased excretion
urinary trimethylamine-N-oxide (TMAO) ([2]; 800 mg/kg i.p., day 3, animals 201 & 202, hydrochloride): decreases; also recorded: levels, TMAO had essentially disappeared from the day 3
urinary bile acids (seen as C18 methyl) [2, 8]: Bile acids: clearly increased (seen as C18 methyl) in the day
urinary threonine [2, 8]: Threonine: was very clearly elevated in the day 3 samples
urinary creatine [2, 9]: increases; also recorded: Creatine: Only animals 201 and 202 showed a clear increase
urinary hippurate [2, 9]: decreased excretion; also recorded: Hippurate: was depleted in the day 3 samples from animals
Total amount of galactosamine excreted in the urine from 0-24 hours post-dosing ([2]; 800 mg/kg i.p., individual animals 201-210, hydrochloride): 40.0 mg and 26.2 mg and 0.4 mg and 0.1 mg and 0.3 mg and 14.9 mg and 8.4 mg and 2.3 mg and 28.2 mg and 30.5 mg
